Measurements as given in article PMC8297771 (PLoS Pathogens, 2021).

How the values were obtained:
[1] = test system: HIV-1 GFP vector produced from treated 293T cells, transduced into Jurkat cells; assay: HIV-1 inhibition in producing cells (late stage); type: cell-based; conditions: 60 nM in 293T producing cells; GFP by FACS in Jurkat cells
Experimental: To test for STP0404’s inhibitory effects during the late stage of HIV-1 life cycle such as the maturation step, we employed the “producing cells” setup. In T75 tissue culture flasks, 293T cells were pre-treated with and without STP0404 (0 and 60 nM) for 2 hrs prior to transfection with pD3-HIV (13 μg) and pVSV-g (6 μg), using 0.3 mg/ml polyethylenimine. After 24 hrs incubation at 37°C, the supernatant was removed and replaced with fresh media with and without STP0404 (0 and 60 nM). 48 hrs later, D3-HIV vector from each treatment group was concentrated from the collected supernatant via ultracentrifugation (22,000 rpm for 2 hrs). Following p24 quantification, using 96-well plates, similar amount of respective D3-HIV vector was used to transduce Jurkat cells in triplicates for 48 hrs. The cells were harvested and fixed with 3.7% formaldehyde before being analyzed for GFP expression using FACS (Miltenyi Biotec, VYB). Separately, the “infecting cells” setup was used to investigate the inhibitory effects of STP0404 against the early stages of HIV-1 life cycle such as the integration and transcription steps. […] All data were analyzed using GraphPad Prism (Version 9). Unpaired t tests were performed to determine the significance of the readings in respective experimental set up relative to the untreated controls. […]

[2] = test system: Ral-resistant (8070_2) clinical isolate; assay: In vitro anti-viral assay in human PBMCs (RT activity readout); type: cell-based, HIV-1
Experimental: (§1) For the assay with human PBMCs, PHA stimulated cells from at least two pooled healthy were infected with HIV-1 strains in 96-well plates. Test drug dilutions, which were prepared at a 2X concentration in microtiter tubes and 100 μL of each concentration (nine total concentrations), were placed in appropriate wells using the standard format. 50 μL of a predetermined dilution of virus stock was placed in each test well (final MOI ≅ 0.1). The PBMC cultures were maintained for 7 days following infection at 37 °C, 5% CO2. After this period, cell-free supernatant samples were collected for analysis of reverse transcriptase (RT) activity. All assays were conducted in triplicates. For RT assay, a microtiter plate-based reverse transcriptase (RT) reaction was utilized (Buckheit et al., AIDS Research and Human Retroviruses 7:295–302, 1991). Tritiated thymidine triphosphate (^3H-TTP, 80 Ci/mmol, NEN) is received in 1:1 dH2O: Ethanol at 1 mCi/mL. Poly rA:oligo dT template:primer (GE Healthcare) was prepared as a stock solution by combining 150 μL poly rA (20 mg/mL) with 0.5 mL oligo dT (20 units/mL) and 5.35 mL sterile dH2O followed by aliquoting (1.0 mL) and storage at—20°C. The RT reaction buffer was prepared fresh on a daily basis and consisted of 125 μL 1.0 M EGTA, 125 μL dH2O, 125 μL 20% Triton X100, 50 μL 1.0 M Tris (pH 7.4), 50 μL 1.0 M DTT, and 40 μL 1.0 M MgCl2. The final reaction mixture was prepared by combining 1 part ^3H-TTP, 4 parts dH2O, 2.5 parts poly rA:oligo dT stock and 2.5 parts reaction buffer. Ten microliters of this reaction mixture were placed in a round bottom microtiter plate and 15 μL of virus containing supernatant is added and mixed. The plate was incubated at 37°C for 60 mins. Following incubation, the reaction volume was spotted onto DE81 filter-mats (Wallac), washed 5 times for 5 mins each in a 5% sodium phosphate buffer or 2X SSC (Life Technologies). Next they were washed 2 times for 1 min each in distilled water, 2 times for 1 min each in 70% ethanol, and then dried. Incorporated radioactivity (counts per min, CPM) was quantified using standard liquid scintillation techniques. These PBMC analysis was conducted by fee to service through Southern Research Institute (Frederick, MD, USA). The IC50 were analyzed using GraphPad Prism (Version 9) and presented as means ± S.D. of the triplicates.

[3] = test system: Ral-resistant (4736_4) clinical isolate; assay: as above; type: cell-based, HIV-1; conditions: human PBMCs, Ral-resistant (4736_4)
Experimental: as §1

[4] = test system: Ral-resistant (8070_1) clinical isolate; assay: as above; type: cell-based, HIV-1
Experimental: as §1

[5] = test system: Ral-resistant (4736_2) clinical isolate; assay: as above; type: cell-based, HIV-1; conditions: human PBMCs, Ral-resistant (4736_2)
Experimental: as §1

[6] = test system: Ral-resistant (1556_1) clinical isolate; assay: as above; type: cell-based, HIV-1
Experimental: as §1

[7] = Safety pharmacology: effects on the respiratory system in rats; type: in vivo; conditions: single oral 100, 300 and 600 mg/kg
Experimental: Effects on the Respiratory System in Rats (Study no. YL18404). Four groups of eight male rats were given a single oral administration of STP0404 at doses of 100, 300 and 600 mg/kg. STP0404 was administered as a suspension in 0.5% MC in a volume of 10 mL/kg. […] Measurements were conducted at pre-dosing and 0.5, 1, 3, 6 12 and 24 hrs post-dosing, and respiratory rate, tidal volume and minute volume were investigated (INA Research, Japan). Effects on the Central Nervous System in Rats (Study no. YL18405). Four groups of six male rats were given a single oral administration of STP0404 at doses of 0 (vehicle), 100, 300 and 600 mg/kg. The test article was administered as a suspension in 0.5% MC in a volume of 10 mL/kg. […] Blinded observations were conducted pre-dosing and 0.5, 1, 3, 6, 12 and 24 hrs post-dosing on rats body temperature, pupil size, landing foot-splay and grip strength in functional observational battery. Effects on the Cardiovascular System in Dogs (Study no. YL18406). STP0404 at dose levels of 30, 60 and 90 mg/kg were administered orally (by capsules) to four male Beagle dogs in a design with 7-day intervals between doses. Heart rate, blood pressure (systolic, diastolic and mean) and electrocardiographic (ECG) parameters (PR, QT and QTc intervals and QRS duration) were evaluated at pre-dosing and 0.5, 1, 2, 4, 8 and 24 hrs post-dosing. […]

[8] = Human immunodeficiency virus 1, PBMC
[9] = Human immunodeficiency virus 1, PBMC, read-out: IC50

Compound: Cc1nc2c(c(C)c(C)n2Cc2cnn(C)c2)c(-c2ccc(Cl)cc2)c1[C@H](OC(C)(C)C)C(=O)O [STP0404]
- transduction efficiency, producing cells [1]: significantly reduced transduction efficiency
- TI (TC50 / IC50) [2]: >43,400
- IC50 [2, 8]: 0.23 ± 0.39 nM
- IC50 [3, 9]: 0.04 ± 0.06 nM
- TI (TC50 / IC50) [3]: >250,000
- IC50 [4, 8]: 0.06 ± 0.07 nM
- TI (TC50 / IC50) ([4]; human PBMCs, Ral-resistant (8070_1)): >166,000
- IC50 [5, 9]: 0.03 ± 0.04 nM
- TI (TC50 / IC50) [5]: >330,000
- TI (TC50 / IC50) [6]: >125,000
- IC50 [6, 8]: 0.08 ± 0.04 nM
- safety pharmacology concerns, respiratory system [7]: did not induce any safety pharmacology concerns
